Assay results reported in patent US6936735B2, “Photostable cationic organic sunscreen compounds and compositions obtained therefrom” (EMD Chemicals, Inc., priority 2002, dated 2005).

Columns and labels:
Type in all cases: physicochemical
[1] = Comparative photostability of thin film under UV-B irradiation (Q-UV Accelerated Weathering Tester); details: UV-B (1 MED/h), thin film with 0.1% PVP-VA on glass plate, Example 3 1%, Incroquat 283 1%, HP610 0.1%
Method: (§1) The photostability of compounds of the present invention as well as existing commercial cationic sunscreens is tested according to the procedure described below: • Photostability: Comparative Photostability of Example 3, Incroquat® 283 and Escalol® HP610
(§2) Three products [Example 3 (1%), Incroquat 283 (1%) and HP610 (0.1%)] were tested for their photostability by dissolving separately in water or ethanol-water solution containing 0.1% Poly(vinylpyrrolidone-vinyl acetate) copolymer (PVP-VA S630 from ISP). Air drying on a glass plate for one hour gave a thin film, which were irradiated under UV A (2 MED/h) and UV B (1 MED/h) light separately over an 8 h period in a Q-UV Accelerated Weathering Tester. Photodegradation was calculated from the decrease in the maximum absorption of the respective products. The results are illustrated in the Tables 1 and 2.

[2] = Comparative photostability of thin film under UV-A irradiation (Q-UV Accelerated Weathering Tester); details: UV-A (2 MED/h), thin film with 0.1% PVP-VA on glass plate, Example 3 1%, Incroquat 283 1%, HP610 0.1%
Method: as §1, §2

[3] = Solubility; details: for solubility in water: water / aqueous solution
[4] = UV absorption maximum; details: EtOH:water—70%:30%
Method: The mass was degassed for one hour at 90-95 deg. C. under vacuum. The yield obtained is about 85%. […] A 50% solution in water was prepared for ease of handling.

% Product Retained After 1 hr [1]	% Product Retained After 2 hr [1]	% Product Retained After Initial [1]	% Product Retained After 2 hr [2]	% Product Retained After 4 hr [2]	% Product Retained After 6 hr [2]	% Product Retained After Initial [2]	maximal concentration reached in solution ([3]; aqueous-ethanolic solution (30:70%))	solubility in water [3]	λmax [4]	Compound
33%	28%	100%	50%	40%	30%	100%	0.25%	very poor solubility		CCCCCCCCCCCC[N+](C)(C)CCCNC(=O)c1ccc(N(C)C)cc1.Cc1ccc(S(=O)(=O)[O-])cc1 [Escalol HP ®-610]
96%	93%	100%	98%	97%	94%	100%		soluble in water	301 nm	Bis-N-[3(N,N-dimethylamino)propyl]-3,4,5-trimethoxy benzylidene malonamide bis ethylsulfate [Example 3]
